Results reported in PubChem BioAssay AID2060882 (Molecular Pharmacology Branch, DTP, NCI, 2025).
pIC50: −log10 of the molar value.

System: 898857-211-R-J1-PDC complex spheroids, growth % test/control
Assay: Anticancer human tumor 898857-211-R-J1-PDC patient-derived melanoma cell line growth inhibition [RAS]
Settings: for pIC50: curve of first compound; for viability, T/C: stronger effect = lower value
Description: RAS pathway inhibitors in Combinations in Complex Spheroids
A high-throughput screen of multi-cell type tumor spheroids was designed to identify active combinations of RAS pathway inhibitors and targeted small molecules. Complex spheroids include a stromal component modeled by human endothelial cells (HUVEC) and fibroblasts modeled by human mesenchymal stem cells (MSCs). The concentration ranges selected for each drug and investigational agent were based upon clinically achievable concentrations if the clinical Cmax of the agent was known.
Compounds. The drugs and investigational agents: abemaciclib (NSC768073), cobimetinib (NSC768068), divarasib (GDC6063, NSC841802), docetaxel (NSC628503), GDC-1971 (RLY-1971, NSC841576), gemcitabine (NSC613327), inavolisib (NSC800729), ipatasertib (NSC767898), KB-0742 (NSC834161), MRTX-1133 (NSC836407), osimertinib (NSC779217), RMC-4630 (NSC839698), RMC-6236 (NSC851965), RMC-6291 (NSC852671), Ro-3306 (NSC812927), sapanisertib (NSC764658), SN-38 (NSC673596), staurosporine (NSC755774), SY5609 (NSC837396), and tovorafenib (DAY101, NSC766906), were obtained from the National Cancer Institute (NCI) Developmental Therapeutics Program Chemical Repository. The FDA-approved anticancer drug set is available from the NCI Developmental Therapeutics Program. […] The stock solutions were prepared in dimethyl sulfoxide (DMSO, Sigma-Aldrich, St. Louis, MO, cat. D2650) at 800-fold the tested concentration and stored at -70 degrees C prior to their use. All drugs and investigational agents were tested over a range starting from a high concentration at or near the clinical Cmax and decreasing in half-log increments. If the clinical Cmax for an agent had not been determined, the highest concentration tested was 10 microM.
Cell Culture. All cells were maintained in an incubator at 37 degrees C and 5% CO2 with 95% humidity. The PDC lines were cultured according to standard operating procedures established by the NCI PDMR. All PDCs were thawed and cultured in Matrigel-coated flasks prepared with a working solution of 1X Ham's F-12 nutrient mix, without supplementation (Invitrogen, Waltham, MA, cat. 11765054), 100 U/mL penicillin-streptomycin (Invitrogen, cat. 15140122), and 2.5% Matrigel (Corning Inc., Corning, NY, cat. 354248) for the first three passages. The 362531-283-R-J2-PDC and 782815-120-R-J1-PDC lines were cultured in 6C/Colon 1B media, which includes advanced DMEM/F-12 (Thermo Fisher Scientific, cat. 12634028), 10 mM HEPES (Thermo Fisher Scientific, cat. 15630080), 1X GlutaMAX supplement (Thermo Fisher Scientific, cat. 35050061), 0.1 mg/mL primocin (InvivoGen, San Diego, CA, cat. ant-pm-2), 10% defined fetal bovine serum, heat inactivated (HyClone Laboratories Inc., Logan, UT, cat. SH30070.03HI), 50% L-WRN conditioned media (ATCC, cat. CRL-3276), 1.25 mM N-Acetyl-L-cysteine (Sigma-Aldrich, cat. A9165), 10 mM nicotinamide (Sigma-Aldrich, cat. N0636), 1X B-27 supplement (Thermo Fisher Scientific, cat. 17504044), 1X N-2 supplement (Thermo Fisher Scientific, cat. 17502048), 50 ng/mL human EGF (Thermo Fisher Scientific, cat. PHG0311), and 10 microM Y-27632 dihydrochloride (Tocris Bioscience, cat. 1254). The K12877-001-R-J1-PDC line was cultured in 6I media, which includes all 6C/Colon 1B media plus 10 ng/mL human FGF-10 (PeproTech, cat. 100-26), 1 ng/mL human FGF-2 (PeproTech, cat. 100-18B), 1 µM prostaglandin E2 (Tocris Bioscience, cat. 2296), […] hydrocortisone (Sigma-Aldrich, cat. H4001), and […] bovine insulin (Sigma-Aldrich, cat. I6634). The K86415-001-R-J1-PDC line was cultured in 6D media, which includes all 6C/Colon 1B media components minus the L-WRN conditioned media. The 485176-168-R4-J1-PDC was cultured in PANC media, which includes all 6C/Colon 1B media plus 100 ng/mL human FGF-10 (PeproTech, cat. 100-26), 500 nM SB-431542 (Selleckchem, cat. S1067), and 10 nM gastrin (Tocris Bioscience, cat. 3006). […]

[1] = second compound 0.0316 µM, first compound 0.0316 µM
[2] = second compound 0.0316 µM, first compound 0.1 µM
[3] = second compound 0.1 µM, first compound 0.0316 µM
[4] = second compound 0.1 µM, first compound 0.1 µM
[5] = second compound 0.316 µM, first compound 0.0316 µM
[6] = second compound 0.316 µM, first compound 0.1 µM
[7] = second compound 1 µM, first compound 0.0316 µM
[8] = second compound 1 µM, first compound 0.1 µM
[9] = second compound 3.16 µM, first compound 0.0316 µM
[10] = second compound 3.16 µM, first compound 0.1 µM
[11] = second compound 10 µM, first compound 0.0316 µM
[12] = second compound 10 µM, first compound 0.1 µM
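Also: spheroids exposed to compound for seven days before readout.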
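For viability, T/C in this document: 100% = DMSO vehicle control wells.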

For `CC(C)n1nc(-c2ccc3oc(N)nc3c2)c2c(N)ncnc21` + C#Cc1c(F)ccc2cc(O)cc(-c3ncc4c(N5CC6CCC(C5)N6)nc(OCC56CCCN5CC(F)C6)nc4c3F)c12, the pIC50 (second compound 0.0316 µM) was 7.49, the pIC50 (second compound 0.1 µM) was 7.42 and the pIC50 (second compound 0.316 µM) was 7.42. For the same molecule, the pIC50 (second compound 1 µM) was 7.43, the pIC50 (second compound 3.16 µM) was 7.40 and the pIC50 (second compound 10 µM) was 8.97. For the same molecule, the viability, T/C (second compound 0.0316 µM, first compound 0.000316 µM) was 108%, the viability, T/C (second compound 0.0316 µM, first compound 0.001 µM) was 92.3% and the viability, T/C (second compound 0.0316 µM, first compound 0.00316 µM) was 101%. It also gave a viability, T/C (second compound 0.0316 µM, first compound 0.01 µM) of 81.8%, a viability, T/C [1] of 50.9% and a viability, T/C [2] of 24%. It also gave a viability, T/C (second compound 0.1 µM, first compound 0.000316 µM) of 115%, a viability, T/C (second compound 0.1 µM, first compound 0.001 µM) of 99.8% and a viability, T/C (second compound 0.1 µM, first compound 0.00316 µM) of 100%. The viability, T/C (second compound 0.1 µM, first compound 0.01 µM) was 79.5%, the viability, T/C [3] was 54.4% and the viability, T/C [4] was 24.5%. For the same molecule, the viability, T/C (second compound 0.316 µM, first compound 0.000316 µM) was 112%, the viability, T/C (second compound 0.316 µM, first compound 0.001 µM) was 113% and the viability, T/C (second compound 0.316 µM, first compound 0.00316 µM) was 99.2%. The viability, T/C (second compound 0.316 µM, first compound 0.01 µM) was 78.9%, the viability, T/C [5] was 55.6% and the viability, T/C [6] was 26.6%. It also gave a viability, T/C (second compound 1 µM, first compound 0.000316 µM) of 110%, a viability, T/C (second compound 1 µM, first compound 0.001 µM) of 103% and a viability, T/C (second compound 1 µM, first compound 0.00316 µM) of 107%. It also gave a viability, T/C (second compound 1 µM, first compound 0.01 µM) of 81.4%, a viability, T/C [7] of 55.8% and a viability, T/C [8] of 23.5%. The viability, T/C (second compound 3.16 µM, first compound 0.000316 µM) was 122%, the viability, T/C (second compound 3.16 µM, first compound 0.001 µM) was 114% and the viability, T/C (second compound 3.16 µM, first compound 0.00316 µM) was 102%. For the same molecule, the viability, T/C (second compound 3.16 µM, first compound 0.01 µM) was 84.4%, the viability, T/C [9] was 55.8% and the viability, T/C [10] was 23.8%. For the same molecule, the viability, T/C (second compound 10 µM, first compound 0.000316 µM) was 57.5%, the viability, T/C (second compound 10 µM, first compound 0.001 µM) was 47.7% and the viability, T/C (second compound 10 µM, first compound 0.00316 µM) was 46.7%. It also gave a viability, T/C (second compound 10 µM, first compound 0.01 µM) of 29.9%, a viability, T/C [11] of 24.4% and a viability, T/C [12] of 10.4%.
Molecule `C[C@@H](NC(=O)c1ncnc(N)c1Cl)c1ncc(C(=O)Nc2cc(C(F)(F)F)c(Cl)cn2)s1` + C#Cc1c(F)ccc2cc(O)cc(-c3ncc4c(N5CC6CCC(C5)N6)nc(OCC56CCCN5CC(F)C6)nc4c3F)c12 has a pIC50 (second compound 0.0316 µM) of 5.17, a pIC50 (second compound 0.1 µM) of 5.22 and a pIC50 (second compound 0.316 µM) of 5.17. It also gave a pIC50 (second compound 1 µM) of 5.18, a pIC50 (second compound 3.16 µM) of 5.30 and a pIC50 (second compound 10 µM) of 6.45. It also gave a viability, T/C [1] of 140%, a viability, T/C [2] of 112% and a viability, T/C (second compound 0.0316 µM, first compound 0.316 µM) of 104%. For the same molecule, the viability, T/C (second compound 0.0316 µM, first compound 1 µM) was 88.3%, the viability, T/C (second compound 0.0316 µM, first compound 3.16 µM) was 63% and the viability, T/C (second compound 0.0316 µM, first compound 10 µM) was 41.3%. It also gave a viability, T/C [3] of 124%, a viability, T/C [4] of 126% and a viability, T/C (second compound 0.1 µM, first compound 0.316 µM) of 99.4%. It also gave a viability, T/C (second compound 0.1 µM, first compound 1 µM) of 88.3%, a viability, T/C (second compound 0.1 µM, first compound 3.16 µM) of 65.8% and a viability, T/C (second compound 0.1 µM, first compound 10 µM) of 37.7%. The viability, T/C [5] was 121%, the viability, T/C [6] was 125% and the viability, T/C (second compound 0.316 µM, first compound 0.316 µM) was 113%. It also gave a viability, T/C (second compound 0.316 µM, first compound 1 µM) of 89.3%, a viability, T/C (second compound 0.316 µM, first compound 3.16 µM) of 66.3% and a viability, T/C (second compound 0.316 µM, first compound 10 µM) of 42%. It also gave a viability, T/C [7] of 126%, a viability, T/C [8] of 122% and a viability, T/C (second compound 1 µM, first compound 0.316 µM) of 115%. For the same molecule, the viability, T/C (second compound 1 µM, first compound 1 µM) was 97.3%, the viability, T/C (second compound 1 µM, first compound 3.16 µM) was 63.4% and the viability, T/C (second compound 1 µM, first compound 10 µM) was 42%. For the same molecule, the viability, T/C [9] was 127%, the viability, T/C [10] was 126% and the viability, T/C (second compound 3.16 µM, first compound 0.316 µM) was 108%. It also gave a viability, T/C (second compound 3.16 µM, first compound 1 µM) of 86.5%, a viability, T/C (second compound 3.16 µM, first compound 3.16 µM) of 64.1% and a viability, T/C (second compound 3.16 µM, first compound 10 µM) of 31.5%. The viability, T/C [11] was 77.3%, the viability, T/C [12] was 70.7% and the viability, T/C (second compound 10 µM, first compound 0.316 µM) was 47.3%. The viability, T/C (second compound 10 µM, first compound 1 µM) was 38.5%, the viability, T/C (second compound 10 µM, first compound 3.16 µM) was 27.4% and the viability, T/C (second compound 10 µM, first compound 10 µM) was 19%.
